Source: publication PMC9307983 (Acta Naturae, 2022)
Where two headings read alike, the source gives them in different places. Marks after values point to notes of the source that are not given here.

Assays:
MGL, Ser339Ala [1] = target: T1, MGL, Ser339Ala (Citrobacter freundii, UniProt Q84AR1, S339A); format: biochemical; conditions: for Km / kcat: Ser339Ala MGL, 30°C, pH 8.0, coupled with HOHxoDH or LDH; for specific activity: Ser339Ala MGL samples of 95% purity, 30 mM substrate, pH 8.0
Experimental: The homogeneity of samples was examined by PAGE electrophoresis under denaturing conditions. During purification, activity was determined in the β-elimination reaction; activity of the final sample was determined in β- and γ-elimination reactions. […] The amount of enzyme that catalyzes the formation of […] of keto acid was defined as the unit of enzymatic activity.
(§1) The kinetic parameters of the γ- and β-elimination reactions were determined at 30°C in the conjugate reaction with HOHxoDH or LDH based on a decrease in NADH absorbance at 340 nm (Δε = 6,220 M^–1cm^–1). The reaction mixtures contained a 100-mM potassium phosphate buffer, pH 8.0, 0.1 mM PLP, 1 mM DTT, 0.2 mM NADH, 70 μg HOHxoDH or 10 U LDH, and variable amounts of the substrate in a total volume of 1 mL. The reaction was initiated by the addition of 10 μg of the enzyme.
(§2) The kinetic parameters were calculated according to the Michaelis–Menten equation using the EnzFitter software. In the calculations, an enzyme subunit molecular weight of 43 kDa was used. The inhibition constants were also determined using the EnzFitter software.

MGL, wild type [2] = conditions: cited from earlier work
MGL, wild type [3] = target: MGL, wild type; parameters: method as in PMID 21166645; conditions: cited from earlier work; for Ki: wild type MGL, γ-elimination of L-methionine, read-out: K I (inhibition constant); for type of inhibition of the physiological reaction: wild-type enzyme
MGL, Ser339Ala [4] = target: T1, MGL, Ser339Ala; test: biochemical; format: biochemical; conditions: for Ki: Ser339Ala MGL, γ-elimination of L-methionine, 30°C, pH 8.0, read-out: K I (inhibition constant); for type of inhibition of the physiological reaction: mutant enzyme (Ser339Ala MGL)
Experimental: as §1, §2

MGL, Ser339Ala [5] = target: T1, MGL, Ser339Ala; format: biochemical; conditions: for kex, α-H (exchange rate of C-α-proton) / kex, β-H (exchange rate of C-β-protons): Ser339Ala MGL, D2O, pD 7.6, 30°C, L-alanine 144.23 mM, L-norleucine 98.04 mM; for Number of exchanged C-α-protons / Number of exchanged C-β-protons: common to wild type and Ser339Ala MGL
Experimental: The kinetics of isotope exchange reactions of the C-α- and C-β-protons for deuteron in inhibitors, catalyzed by the mutant form, was detected using 1H NMR spectroscopy. The reaction was conducted in D2O containing 50 mM potassium phosphate (pD = 7.6), 0.1 mM PLP, and an inhibitor in a total volume of 0.5 mL at 30°C at L-alanine and L-norleucine concentrations of 144.23 mM and 98.04 mM, respectively. The reaction was initiated by adding 0.3–0.7 mg of the enzyme. 1H NMR spectra were recorded at fixed time intervals on a Bruker AMXIII-400 spectrometer at an operating frequency of 400 MHz. The signals of the C-α- and C-β-protons were integrated using the modified Enzkin computer program, which is a part of the XWIN-NMR programs. The kinetic curves of the yields of deuterated products were processed according to the method described in [39]. […]

MGL, wild type [6] = conditions: cited from earlier work; remark: listed apart in the source
wild-type MGL = conditions: read-out: dissociation constant of the PLP complex; cited from earlier work
[7] = wild type MGL, substrate of elimination reaction

In the case of `NC(CCS)C(=O)O` (racemic) [DL-Hcy], the Km (MGL, Ser339Ala [1]) is listed as 3390 ± 340 µM, the kcat (MGL, Ser339Ala [1]) is listed as 0.28 ± 0.009 s^–1 and the Km (MGL, wild type [2]; [7]) is listed as 970 ± 150 µM. The kcat (MGL, wild type [2]; [7]) was 8.51 ± 0.41* s^–1.
In the case of `NCC(=O)O` [Gly, glycine], the Ki (MGL, wild type [3]) is given as 48.5 ± 4.37 mM, the “type of inhibition of the physiological reaction” value (MGL, wild type [3]) is given as “competitive inhibitors” and the Ki (MGL, Ser339Ala [4]) is given as 22.9 ± 2.84 mM. The “type of inhibition of the physiological reaction” value (MGL, Ser339Ala [4]) was “competitive inhibitors”, the “kex, α-H (exchange rate of C-α-proton)” value (MGL, Ser339Ala [5]) was 0.078 s⁻¹ and the “exchange of the pro-(S) proton” value (MGL, Ser339Ala [5]; mutant form, long incubation in D2O (led to inactivation of the enzyme)) was “unable to detect any exchange”. For the same molecule, the “kex, α-H (exchange rate of C-α-proton)” value (MGL, wild type [6]) was 20.2* s^-1.
For `C[C@H](N)C(=O)O` [L-Ala, L-alanine], the Ki (MGL, wild type [3]) is given as 3.41 ± 0.4 mM, the “type of inhibition of the physiological reaction” value (MGL, wild type [3]) is given as “competitive inhibitors” and the “type of inhibition of the physiological reaction” value (MGL, Ser339Ala [4]) is given as “competitive inhibitors”. The “kex, α-H (exchange rate of C-α-proton)” value (MGL, Ser339Ala [5]) was 0.387 s⁻¹, the “kex, β-H (exchange rate of C-β-protons)” value (MGL, Ser339Ala [5]) was 0.116 s⁻¹ and the “Number of exchanged C-α-protons” value (MGL, Ser339Ala [5]) was 1. The “Number of exchanged C-β-protons” value (MGL, Ser339Ala [5]) was 3, the “kex, α-H (exchange rate of C-α-proton)” value (MGL, wild type [6]; wild type MGL) was 2.71* s^-1 and the “kex, β-H (exchange rate of C-β-protons)” value (MGL, wild type [6]; wild type MGL) was 2.63* s^-1.
In the case of `CSCC[C@H](N)C(=O)O` [L-Met, L-methionine], the specific activity (MGL, Ser339Ala [1]) is given as 0.31 U/mg, the Km (MGL, wild type [2]; [7]) is given as 700 ± 110 µM and the kcat (MGL, wild type [2]; [7]) is given as 6.2 ± 0.42* s^–1.
In the case of `CCCC[C@H](N)C(=O)O` [L-Nle, L-norleucine], the Ki (MGL, wild type [3]) is listed as 0.6 ± 0.06 mM, the “type of inhibition of the physiological reaction” value (MGL, wild type [3]) is listed as “competitive inhibitors” and the Ki (MGL, Ser339Ala [4]) is listed as 0.89 ± 0.09 mM. The “type of inhibition of the physiological reaction” value (MGL, Ser339Ala [4]) was “competitive inhibitors”, the “kex, α-H (exchange rate of C-α-proton)” value (MGL, Ser339Ala [5]) was 0.46 s⁻¹ and the “kex, β-H (exchange rate of C-β-protons)” value (MGL, Ser339Ala [5]) was 0.12 s⁻¹. For the same molecule, the “Number of exchanged C-α-protons” value (MGL, Ser339Ala [5]) was 1, the “Number of exchanged C-β-protons” value (MGL, Ser339Ala [5]) was 2 and the “kex, α-H (exchange rate of C-α-proton)” value (MGL, wild type [6]; wild type MGL) was 41.8* s^-1. The “kex, β-H (exchange rate of C-β-protons)” value (MGL, wild type [6]; wild type MGL) was 4.74* s^-1.
In the case of `CCC[C@H](N)C(=O)O` [L-Nva, L-norvaline], the Ki (MGL, wild type [3]) is given as 4.6 ± 0.43 mM, the “type of inhibition of the physiological reaction” value (MGL, wild type [3]) is given as “competitive inhibitors” and the Ki (MGL, Ser339Ala [4]) is given as 1.7 ± 0.32 mM. The “type of inhibition of the physiological reaction” value (MGL, Ser339Ala [4]) was “competitive inhibitors”.
For `CC[C@H](N)C(=O)O` [L-α-Abu, L-α-aminobutyric acid], the Ki (MGL, wild type [3]) is listed as 8.01 ± 0.76 mM, the “type of inhibition of the physiological reaction” value (MGL, wild type [3]) is listed as “competitive inhibitors” and the Ki (MGL, Ser339Ala [4]) is listed as 4.66 ± 0.51 mM. The “type of inhibition of the physiological reaction” value (MGL, Ser339Ala [4]) was “competitive inhibitors”.
In the case of `CC(=O)OCC[C@H](N)C(=O)O` [O-Ac-L-Hse, O-acetyl-L-homoserine], the Km (MGL, Ser339Ala [1]) is listed as 2070 ± 220 µM, the kcat (MGL, Ser339Ala [1]) is listed as 0.77 ± 0.011 s^–1 and the Km (MGL, wild type [2]; [7]) is listed as 2910 ± 180 µM. For the same molecule, the kcat (MGL, wild type [2]; [7]) was 2.1 ± 0.053** s^–1.
In the case of `CC(=O)OC[C@H](N)C(=O)O` [O-Ac-L-Ser], the Km (MGL, Ser339Ala [1]) is listed as 16400 ± 1090 µM, the kcat (MGL, Ser339Ala [1]) is listed as 0.047 ± 0.001 s^–1 and the Km (MGL, wild type [2]; [7]) is listed as 4280 ± 330 µM. For the same molecule, the kcat (MGL, wild type [2]; [7]) was 2.13 ± 0.037*** s^–1.
For `Cc1ncc(COP(=O)(O)O)c(C=O)c1O` [PLP, pyridoxal 5’-phosphate], the Kd (wild-type MGL) is listed as 0.000624 mM.
For `CCSCC[C@H](N)C(=O)O` [S-Et-L-Hcy], the Km (MGL, Ser339Ala [1]) is listed as 540 ± 37 µM, the kcat (MGL, Ser339Ala [1]) is listed as 0.16 ± 0.0016 s^–1 and the Km (MGL, wild type [2]; [7]) is listed as 540 ± 10 µM. The kcat (MGL, wild type [2]; [7]) was 6.78 ± 0.02* s^–1.
For S-benzyl-L-cysteine [S-Bzl-L-Cys], the Km (MGL, Ser339Ala [1]) is given as 5760 ± 590 µM, the kcat (MGL, Ser339Ala [1]) is given as 1.81 ± 0.094 s^–1 and the Km (MGL, wild type [2]) is given as 180 ± 20 µM. For the same molecule, the kcat (MGL, wild type [2]; [7]) was 8.16 ± 0.23* s^–1.
Molecule S-ethyl-L-cysteine [S-Et-L-Cys] has a specific activity (MGL, Ser339Ala [1]) of 1.03 U/mg, a Km (MGL, Ser339Ala [1]) of 6470 ± 540 µM and a kcat (MGL, Ser339Ala [1]) of 0.67 ± 0.024 s^–1. For the same molecule, the Km (MGL, wild type [2]) was 170 ± 20 µM and the kcat (MGL, wild type [2]; [7]) was 5.03 ± 0.16* s^–1.
For S-methyl-L-cysteine [S-Met-L-Cys], the Km (MGL, Ser339Ala [1]) is given as 21800 ± 2250 µM, the kcat (MGL, Ser339Ala [1]) is given as 0.41 ± 0.018 s^–1 and the Km (MGL, wild type [2]; [7]) is given as 710 ± 110 µM. For the same molecule, the kcat (MGL, wild type [2]; [7]) was 4.6 ± 0.29* s^–1.
